Legend:
[1] = target: T1, 5-hydroxytryptamine receptor 2C (Homo sapiens, UniProt P28335); assay: Displacement of [3H]Mesulergine from human recombinant 5-HT2C receptor expressed in CHO-K1 cells after 15 mins; assay type: cell-based
T1 sequence (P28335 whole entry): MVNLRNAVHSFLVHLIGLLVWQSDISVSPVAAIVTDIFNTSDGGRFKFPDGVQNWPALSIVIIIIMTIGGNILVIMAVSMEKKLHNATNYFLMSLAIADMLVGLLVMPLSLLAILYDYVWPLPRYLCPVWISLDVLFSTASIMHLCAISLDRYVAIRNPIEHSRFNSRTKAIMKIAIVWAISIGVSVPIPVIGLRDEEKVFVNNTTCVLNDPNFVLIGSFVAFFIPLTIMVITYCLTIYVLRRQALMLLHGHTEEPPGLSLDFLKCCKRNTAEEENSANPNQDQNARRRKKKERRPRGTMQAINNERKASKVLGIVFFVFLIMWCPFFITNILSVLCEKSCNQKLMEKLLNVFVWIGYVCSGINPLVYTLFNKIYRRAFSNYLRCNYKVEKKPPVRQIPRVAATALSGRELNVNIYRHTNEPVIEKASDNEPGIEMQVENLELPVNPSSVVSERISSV

[2] = target: T2, 5-hydroxytryptamine receptor 2C (Homo sapiens) (UniProt P28335); assay: Displacement of [3H]Mesulergine from human recombinant 5-HT2C receptor expressed in CHO-K1 cells at 10 uM after 15 mins; assay type: cell-based
T2 sequence (whole entry): T1 sequence (P28335 whole entry)

[3] = target: T3, 5-hydroxytryptamine receptor 6 (Homo sapiens, UniProt P50406); assay: Inhibition of human recombinant 5-HT6 receptor expressed in HEK293 cells assessed as inhibition of 5-HT-induced increase in […] pretreated for 10 mins by cAMP accumulation assay; assay type: functional, cell-based
T3 sequence (P50406 whole entry): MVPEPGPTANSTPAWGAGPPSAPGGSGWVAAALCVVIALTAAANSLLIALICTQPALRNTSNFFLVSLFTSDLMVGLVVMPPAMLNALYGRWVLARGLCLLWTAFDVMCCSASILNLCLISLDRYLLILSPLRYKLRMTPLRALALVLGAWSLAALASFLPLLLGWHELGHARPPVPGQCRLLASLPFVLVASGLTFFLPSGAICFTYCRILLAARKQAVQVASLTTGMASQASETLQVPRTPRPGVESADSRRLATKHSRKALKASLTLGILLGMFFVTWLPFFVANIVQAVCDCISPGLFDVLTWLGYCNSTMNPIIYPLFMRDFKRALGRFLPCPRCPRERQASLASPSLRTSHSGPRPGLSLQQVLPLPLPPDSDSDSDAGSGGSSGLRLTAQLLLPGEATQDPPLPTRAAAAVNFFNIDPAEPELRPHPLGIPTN

[4] = target: T3, 5-hydroxytryptamine receptor 6; assay: Inhibition of human recombinant 5-HT6 receptor expressed in HEK293 cells assessed as inhibition of 5-HT-induced increase in […] pretreated at 10 uM for 10 mins by cAMP accumulation assay; assay type: functional, cell-based
[5] = target: T4, 5-hydroxytryptamine receptor 2A (Homo sapiens, UniProt P28223); assay: Displacement of [3H]Ketanserin from human recombinant 5-HT2A receptor expressed in CHO-K1 cells at 10 uM after 15 mins; assay type: cell-based
T4 sequence (P28223 whole entry): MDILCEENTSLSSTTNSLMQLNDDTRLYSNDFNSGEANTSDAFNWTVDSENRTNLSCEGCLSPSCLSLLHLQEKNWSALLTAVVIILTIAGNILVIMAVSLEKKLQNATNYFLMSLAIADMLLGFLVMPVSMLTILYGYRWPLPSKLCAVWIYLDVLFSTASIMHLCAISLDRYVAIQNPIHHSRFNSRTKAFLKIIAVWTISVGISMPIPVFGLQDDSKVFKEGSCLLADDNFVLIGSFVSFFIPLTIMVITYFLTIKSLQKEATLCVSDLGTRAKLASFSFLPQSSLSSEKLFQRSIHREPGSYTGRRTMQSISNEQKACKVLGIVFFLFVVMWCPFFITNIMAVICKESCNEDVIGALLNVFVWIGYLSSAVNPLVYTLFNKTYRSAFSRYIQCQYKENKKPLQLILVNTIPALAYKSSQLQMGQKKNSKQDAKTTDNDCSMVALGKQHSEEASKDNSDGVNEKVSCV

[6] = target: T4, 5-hydroxytryptamine receptor 2A; assay: Displacement of [3H]Ketanserin from human recombinant 5-HT2A receptor expressed in CHO-K1 cells after 15 mins; assay type: cell-based

Compound | IC50 [1] [nM] | inhibition [2] [%] | IC50 [3] [nM] | inhibition [4] [%] | inhibition [5] [%] | IC50 [6] [nM]
Cc1ccc(S(=O)(=O)n2cc(/C=N/N=C/N(C)C)c3c([N+](=O)[O-])cccc32)cc1 | 480 | 82.3 | 2120 | 75.2 | 88.3 | 253
CN(C)/C=N/N=C/c1cn(S(=O)(=O)c2cccc3ccccc23)c2cccc([N+](=O)[O-])c12 | – | 64.2 | 2960 | 73.9 | 94.6 | 555
CN(C)/C=N/N=C/c1cn(S(=O)(=O)c2ccc(I)cc2)c2cccc([N+](=O)[O-])c12 | – | 66.2 | 6340 | 62.4 | 85.2 | 247
CCCCc1ccc(S(=O)(=O)n2cc(/C=N/N=C/N(C)C)c3c([N+](=O)[O-])cccc32)cc1 | – | – | – | 11.3 | – | –
CN1CCN(c2nc3ccc(NS(=O)(=O)c4cccc5ccccc45)cc3s2)CC1 | – | – | 3900 | – | – | –
COc1ccc(Cl)cc1S(=O)(=O)n1cc(/C=N/N=C/N(C)C)c2c([N+](=O)[O-])cccc21 | – | 44.9 | 2440 | 87.7 | 75.9 | 1590
COc1ccc(OC)c(S(=O)(=O)n2cc(/C=N/N=C/N(C)C)c3c([N+](=O)[O-])cccc32)c1 | – | 48.1 | 1400 | 78.2 | 84.4 | 479
CN(C)/C=N/N=C/c1cn(S(=O)(=O)c2ccccc2)c2cccc([N+](=O)[O-])c12 | – | 48.4 | 1830 | 78.1 | 83.9 | 329
CN(C)/C=N/N=C/c1cn(S(=O)(=O)c2ccc(F)cc2)c2cccc([N+](=O)[O-])c12 | – | 55.5 | 4970 | 63.9 | 94.2 | 702
CN(C)/C=N/N=C/c1cn(S(=O)(=O)c2ccc3ccccc3c2)c2cccc([N+](=O)[O-])c12 | 463 | 80.1 | 2530 | 68 | 88 | 433
COc1ccc(S(=O)(=O)n2cc(/C=N/N=C/N(C)C)c3c([N+](=O)[O-])cccc32)cc1 | 1040 | 67.8 | 740 | 78.6 | 90.7 | 205
